1 compound from article PMC8752738, “A propolis-derived small molecule ameliorates metabolic syndrome in obese mice by targeting the CREB/CRTC2 transcriptional complex” (Nature Communications, 2022) can be followed below.

Values joined by “and” are separate entries in the source; they are usually repeats but may differ in a detail not shown here. Equal values may be shown once.

One test deals with T1, CREB / CRTC3 interaction (Homo sapiens, UniProt P16220).
T1 construct: expressed in transfected cells; host or cells: HEK293T
T1 sequence (P16220 whole entry): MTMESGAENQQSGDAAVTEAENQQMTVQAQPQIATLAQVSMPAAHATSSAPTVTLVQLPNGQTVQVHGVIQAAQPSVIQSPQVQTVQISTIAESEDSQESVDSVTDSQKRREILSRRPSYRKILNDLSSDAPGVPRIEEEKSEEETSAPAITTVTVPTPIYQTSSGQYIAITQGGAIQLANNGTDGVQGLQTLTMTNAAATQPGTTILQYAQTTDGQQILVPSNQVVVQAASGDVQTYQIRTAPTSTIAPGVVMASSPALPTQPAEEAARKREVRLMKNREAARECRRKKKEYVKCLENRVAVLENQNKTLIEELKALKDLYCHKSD
The experiment in a line: Co-immunoprecipitation of GFP-CRTC3 by MYC-CREB, HEK293T. In kind it is cell-based. To be noted: overexpression HEK293T cells, APC 10 μM. Here is the method:
1 Supplementary Figure 2.
2 a) Immunoblot of HA-P300 recovered from HEK293T cell lysate using GST-CREB beads. APC
3 (10 μM) was incubated with cells for 1-h before FKS (10 nM) stimulation and was included in the
4 following pull-down mixtures (n=3). One of two independent experiments presented here.
5 b) Immunoblot for recovered GFP-CRTC1 or (c) GFP-CRTC3 immunoprecipitated by MYC-CREB
6 from overexpression HEK293T cell line. APC (10 μM) was incubated with cells for 1-h before FKS
7 (10 nM) stimulation and was included in the following pull-down mixtures. One of two independent
8 experiments presented here.
9 d) SPR sonogram traces of APC binding with HIS-CREB proteins immobilized to NTA-chip. The
10 concentration series of APC was as indicated.
11 e) SPR sonogram traces of APC flowing through HIS-CRTC2-S171A proteins immobilized on
12 NTA-chip. The concentration of APC was as indicated.
13 f) The luciferase enzymatic activity of HEK293T incubated with APC. Cells over-expressed
14 luciferase CRE-Luc reporter and were stimulated by FSK (10 nM) for 5-h before lysis, which was
15 then incubated with APC (concentration indicated) for 30 min before luciferase activity determination
16 (n=3 per treatment). Data are represented as mean ± SEM. *, p < 0.05; **, p < 0.01; p values were
17 determined by one-way ANOVA followed Dunnett’s multiple comparisons test. […]

In another test the test system is mouse Lxra promoter. The test is described as follows: Truncated Lxra-LUC reporter in HEK293T. In kind it is cell-based. The following applies: for Relative luciferase reporter activity of mouse LXRa promotor deletion series, group mean (Mean 2) / Relative luciferase reporter activity of mouse LXRa promotor deletion series, group mean (Mean 1) / Relative luciferase reporter activity of mouse LXRa promotor deletion series: APC 10uM; for Relative luciferase reporter activity of mouse LXRa promotor deletion series: individual replicates. Here is the method:
Fig. 7 APC inhibits SREBP1 expression via the CRE-LXRα-LXRE axis. a Quantitative PCR analysis of hepatic expressions of Lxra, Ppra, Pprg, Rxra in DIO mice, which were continuously i.p. injected with control vehicle (VEH) or APC (20 mg/kg) with indicated doses one time daily for 5 weeks (n = 6 per group). One of two independent experiments is shown here. Data are represented as mean ± SEM. *P < 0.05; **P < 0.01; P values were determined by two-way ANOVA followed Bonferroni’s multiple comparisons test. b Immunoblotting analysis of hepatic LXRα and premature SREBP1 protein levels in the livers of DIO mice injected APC for 5 weeks as (a). One of three independent experiments is shown here (left). The relative protein of LXRα, SREBP1, and PPARα normalized by GAPDH is shown as a bar graph (right) (n = 3). Data are represented as mean ± SEM. *P < 0.05; **P < 0.01; P values were determined by two-way ANOVA followed Bonferroni’s multiple comparisons test. c CHIP analysis LXRa and RXRa recruited to the promoter of the mouse Srebf1 (top) gene in primary hepatocytes from wild C57 mice and pretreated APC (10 μM) for 1-h (bottom) (n = 4 per treatment). One of three independent experiments presented here. Data are represented as mean ± SEM. *P < 0.05; **P < 0.01; P values were determined by two-way ANOVA followed Bonferroni multiple comparisons test. d CHIP analysis of CREB and CRTC2 occupancy over the half CRE sites in the Lxra promoter (Top) in primary mouse hepatocytes overexpressing CRTC2, pretreated with APC (10 μM) for 1-h prior to 1-h glucagon stimulation (Gluc, 100 nM) (bottom) (n = 4 per treatment). One of three independent experiments presented here. Data are represented as mean ± SEM. *P < 0.05; **P < 0.01; P values were determined by two-way ANOVA followed Bonferroni’s multiple comparisons test. e Reporter activity of truncated Lxra-LUC reporter. The luciferase reporter was driven by mouse Lxra promoter (−1342) or truncations (−784 and −178) co-transfected with MYC-Creb and FLAG-Crtc2-S171A in HEK293T cells, and pretreated with APC prior to stimulation with FSK (10 nM) for 4-h (n = 3 per treatment). One of three independent experiments presented here. Data are represented as mean ± SEM. *P < 0.05; **P < 0.01; P values were determined by two-way ANOVA followed Bonferroni’s multiple comparisons test. f Quantitative PCR analysis of the expression of CRTC2, Lxra, Srebf-1c, and Srebf-2, in primary hepatocytes, which were infected by LV-Crtc2-S171A or control and incubated with APC (10 μM) for 8-h (n = 3 per treatment). One of three independent experiments presented here. Data are represented as mean ± SEM. *P < 0.05; **P < 0.01; P values were determined by two-way ANOVA followed Bonferroni’s multiple comparisons test. g Quantitative PCR analysis of Lxra gene expression in the liver of CRTC2-KO mice. Be induced by high-fat diet for 8 weeks, with Crtc2-KO mice and wild-type littermates administered VEH (vehicle control), MET (metformin, 200 mg/kg), or APC (20 mg/kg) for 3 weeks, followed by fasting 8-h before anesthesia (n = 5 per group). Data are represented as mean ± SEM. *P < 0.05; **P < 0.01; P values of Crtc2 gene were determined by unpaired two-tailed t test with Welch’s correction, and P values of Lxra gene were determined by two-way ANOVA followed Bonferroni’s multiple comparisons test. h Immunoblotting analysis of LXRα protein in the liver of these mice as in (g). One of two independent experiments is presented here (top), and the relative concentration of LXRα normalized to ACTIN is shown as a bar graph (bottom). (n = 5 mice per group, two technological repeats represent a composite pool). Data are represented as mean ± SEM. *P < 0.05; **P < 0.01; P values were determined by two-way ANOVA followed Bonferroni’s multiple comparison test. Source data for this figure are provided as source data file.
(In general: A reporter such as luciferase makes a cellular process visible.)

For `CC(C)=CCc1cc(C=CC(=O)O)cc(CC=C(C)C)c1O` [APC, 3,5-diprenyl-4-hydroxycinnamic acid], on CREB / CRTC3 interaction, the “interaction of CREB and CRTC3” value is “attenuated”. Besides, the “Relative luciferase reporter activity of mouse LXRa promotor deletion series, group mean (Mean 2)” value in the test with mouse Lxra promoter (-178, CREB/CRTC2-S171A +, Ctrl (no FSK), mean of N=3) worked out at 80.85; in the test with mouse Lxra promoter (-784, CREB/CRTC2-S171A +, Ctrl (no FSK), mean of N=3), 65.74; in the test on mouse Lxra promoter (-1342, CREB/CRTC2-S171A +, Ctrl (no FSK), mean of N=3), 120.4. Further, the “Relative luciferase reporter activity of mouse LXRa promotor deletion series, group mean (Mean 1)” value in the test on mouse Lxra promoter (-178, CREB/CRTC2-S171A +, FSK, mean of N=3) is reported as 101.4; with mouse Lxra promoter (-784, CREB/CRTC2-S171A +, FSK, mean of N=3), 80.88; with mouse Lxra promoter (-1342, CREB/CRTC2-S171A +, FSK, mean of N=3) it was 140.5. Moreover, the “Lxra-LUC reporter activity, Mean” value in the test with mouse Lxra promoter (-178 construct, Ctrl (no FSK), mean of N=3, -1342_Ctrl = 100) amounted to 80.85; in the test with mouse Lxra promoter (-178 construct, FSK, mean of N=3, -178_Ctrl with FSK = 80.5) it was 101.4; with mouse Lxra promoter (-784 construct, Ctrl (no FSK), mean of N=3, -1342_Ctrl = 100), 65.74; with mouse Lxra promoter (-784 construct, FSK, mean of N=3, -784_Ctrl with FSK = 84.79), 80.88; in the test with mouse Lxra promoter (-1342 construct, Ctrl (no FSK), mean of N=3, -1342_Ctrl = 100), 120.4; with mouse Lxra promoter (-1342 construct, FSK, mean of N=3, -1342_Ctrl with FSK = 265.7), 140.5. In the test with mouse Lxra promoter (HEK293T, FSK, attenuated when half CRE site −984 deleted), the Lxrα-luc reporter activity entry is given as “inhibition of Lxrα-luc reporter activity”. The “Relative luciferase reporter activity of mouse LXRa promotor deletion series” value was 68.909 with mouse Lxra promoter (mLXRa promoter region -178, CREB/CRTC2-S171A +, Ctrl (no FSK)); 81.477 and 92.1755 with mouse Lxra promoter (mLXRa promoter region -178, CREB/CRTC2-S171A +, Ctrl (no FSK), unstimulated control); 110.535 and 84.2634 and 109.449 with mouse Lxra promoter (mLXRa promoter region -178, CREB/CRTC2-S171A +, FSK, FSK stimulated); 58.3809 in the test on mouse Lxra promoter (mLXRa promoter region -784, CREB/CRTC2-S171A +, Ctrl (no FSK)); 73.0822 and 65.7554 with mouse Lxra promoter (mLXRa promoter region -784, CREB/CRTC2-S171A +, Ctrl (no FSK), unstimulated control); 83.8052 and 88.4723 and 70.3736 in the test with mouse Lxra promoter (mLXRa promoter region -784, CREB/CRTC2-S171A +, FSK, FSK stimulated). Further, the “Relative luciferase reporter activity of mouse LXRa promotor deletion series” value in the test on mouse Lxra promoter (mLXRa promoter region -1342, CREB/CRTC2-S171A +, Ctrl (no FSK)) was 97.1063; in the test on mouse Lxra promoter (mLXRa promoter region -1342, CREB/CRTC2-S171A +, Ctrl (no FSK), unstimulated control) it was 135.223 and 128.99; in the test with mouse Lxra promoter (mLXRa promoter region -1342, CREB/CRTC2-S171A +, FSK, FSK stimulated), 139.251 and 135.05 and 147.302.
